pIC50: −log10 of the molar value.
Experiments:
[1] = target: T1, Athrobacter ureafaciens neuraminidase (Paenarthrobacter ureafaciens, UniProt Q5W7Q2); assay: Western blot analysis of covalent binding (biotinylation) of neuraminidase; conditions: 200 μM, 4° C., ammonium acetate buffer 100 mM; bands of 88, 66 and 52 KDa
T1 sequence (Q5W7Q2 39-990): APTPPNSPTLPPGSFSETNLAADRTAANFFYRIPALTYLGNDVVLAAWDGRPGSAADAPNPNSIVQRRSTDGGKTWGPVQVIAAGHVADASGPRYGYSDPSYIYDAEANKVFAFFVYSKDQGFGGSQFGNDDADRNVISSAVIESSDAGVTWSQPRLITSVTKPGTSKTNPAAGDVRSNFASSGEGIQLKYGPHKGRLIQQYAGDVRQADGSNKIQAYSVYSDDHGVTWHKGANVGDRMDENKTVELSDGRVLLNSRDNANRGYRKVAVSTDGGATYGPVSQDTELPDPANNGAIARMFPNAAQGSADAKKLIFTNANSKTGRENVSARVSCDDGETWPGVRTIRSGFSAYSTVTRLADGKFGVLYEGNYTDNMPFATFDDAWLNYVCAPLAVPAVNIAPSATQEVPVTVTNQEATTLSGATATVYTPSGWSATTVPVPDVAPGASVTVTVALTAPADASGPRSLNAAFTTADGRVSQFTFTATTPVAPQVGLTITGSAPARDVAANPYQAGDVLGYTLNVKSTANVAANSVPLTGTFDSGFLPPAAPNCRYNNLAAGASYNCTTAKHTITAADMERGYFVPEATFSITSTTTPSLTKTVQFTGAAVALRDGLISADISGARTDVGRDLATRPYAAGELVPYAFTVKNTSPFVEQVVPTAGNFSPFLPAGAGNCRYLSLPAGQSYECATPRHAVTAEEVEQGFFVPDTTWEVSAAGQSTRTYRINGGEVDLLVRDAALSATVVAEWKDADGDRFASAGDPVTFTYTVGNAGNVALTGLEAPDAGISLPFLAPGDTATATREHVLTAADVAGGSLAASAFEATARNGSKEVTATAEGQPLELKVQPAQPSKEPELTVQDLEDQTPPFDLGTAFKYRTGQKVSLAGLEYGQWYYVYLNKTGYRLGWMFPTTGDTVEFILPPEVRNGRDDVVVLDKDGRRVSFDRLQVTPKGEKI

[2] = target: Bovine serum albumin (BSA) (Bos taurus, UniProt P02769); assay: Western blot analysis, negative control protein; type: binding; conditions: BSA 0.65 μg/μl with 200 μM, 4° C.
Sequence of Bovine serum albumin (BSA) (P02769 25-607): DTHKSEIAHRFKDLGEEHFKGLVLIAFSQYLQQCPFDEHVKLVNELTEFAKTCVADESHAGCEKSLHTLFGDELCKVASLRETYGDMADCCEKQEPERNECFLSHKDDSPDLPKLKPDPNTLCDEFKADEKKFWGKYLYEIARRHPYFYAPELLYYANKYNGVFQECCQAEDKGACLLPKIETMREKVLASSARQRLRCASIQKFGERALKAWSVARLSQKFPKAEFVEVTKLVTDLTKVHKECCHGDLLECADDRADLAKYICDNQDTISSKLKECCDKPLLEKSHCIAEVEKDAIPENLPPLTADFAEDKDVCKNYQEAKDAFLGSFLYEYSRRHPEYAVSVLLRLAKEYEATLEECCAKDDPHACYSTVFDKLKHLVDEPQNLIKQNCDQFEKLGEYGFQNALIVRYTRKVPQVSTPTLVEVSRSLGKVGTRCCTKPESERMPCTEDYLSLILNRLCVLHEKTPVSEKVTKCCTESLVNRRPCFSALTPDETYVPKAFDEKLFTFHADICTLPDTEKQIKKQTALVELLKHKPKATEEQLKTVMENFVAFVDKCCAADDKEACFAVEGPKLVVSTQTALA

[3] = target: T2, influenza A virus neuraminidase (Influenza A virus, UniProt P03470); assay: biochemical; type: biochemical, influenza A virus (A/WSN/33)
T2 construct: pre-incubated for 45 minutes with influenza A virus (A/WSN/33; 9×10^3 PFU); host or cells: whole virus particles (PFU-titred virus stock)
T2 sequence (P03470 whole entry): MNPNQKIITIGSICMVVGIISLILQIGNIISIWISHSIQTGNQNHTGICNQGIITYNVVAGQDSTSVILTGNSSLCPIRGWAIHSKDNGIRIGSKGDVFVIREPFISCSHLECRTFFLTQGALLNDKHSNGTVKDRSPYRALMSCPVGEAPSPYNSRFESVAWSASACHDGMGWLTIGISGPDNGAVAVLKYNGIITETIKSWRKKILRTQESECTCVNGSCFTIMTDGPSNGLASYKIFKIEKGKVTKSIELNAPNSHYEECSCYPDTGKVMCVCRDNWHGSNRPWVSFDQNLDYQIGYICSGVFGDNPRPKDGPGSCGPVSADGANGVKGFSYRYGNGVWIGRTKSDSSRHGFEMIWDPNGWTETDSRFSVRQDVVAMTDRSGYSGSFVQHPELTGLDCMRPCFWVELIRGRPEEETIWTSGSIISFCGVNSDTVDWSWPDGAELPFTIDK

[4] = target: T1, Athrobacter ureafaciens neuraminidase; type: biochemical; conditions: pH 6.5
[5] = target: Clostridium perfringens neuraminidase (Clostridium perfringens, UniProt P10481); type: biochemical; conditions: pH 6.5
Sequence of Clostridium perfringens neuraminidase (P10481 whole entry, looked up): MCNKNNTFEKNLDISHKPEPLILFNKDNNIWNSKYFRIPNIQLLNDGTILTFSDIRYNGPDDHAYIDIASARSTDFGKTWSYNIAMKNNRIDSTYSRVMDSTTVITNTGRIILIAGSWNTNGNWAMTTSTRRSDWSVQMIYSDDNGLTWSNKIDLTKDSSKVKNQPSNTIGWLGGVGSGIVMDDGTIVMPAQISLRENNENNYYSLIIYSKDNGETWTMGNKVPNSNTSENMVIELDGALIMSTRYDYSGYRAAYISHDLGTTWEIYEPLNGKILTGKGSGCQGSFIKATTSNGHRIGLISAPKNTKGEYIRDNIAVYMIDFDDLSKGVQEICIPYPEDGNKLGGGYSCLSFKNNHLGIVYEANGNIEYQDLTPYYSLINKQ

[6] = target: Vibro cholerae neuraminidase (Vibrio cholerae serotype O1, UniProt P0C6E9); assay: biochemical; type: biochemical; conditions: for inhibitory effect on neuraminidase activity: pH 6.5
Sequence of Vibro cholerae neuraminidase (P0C6E9 25-781): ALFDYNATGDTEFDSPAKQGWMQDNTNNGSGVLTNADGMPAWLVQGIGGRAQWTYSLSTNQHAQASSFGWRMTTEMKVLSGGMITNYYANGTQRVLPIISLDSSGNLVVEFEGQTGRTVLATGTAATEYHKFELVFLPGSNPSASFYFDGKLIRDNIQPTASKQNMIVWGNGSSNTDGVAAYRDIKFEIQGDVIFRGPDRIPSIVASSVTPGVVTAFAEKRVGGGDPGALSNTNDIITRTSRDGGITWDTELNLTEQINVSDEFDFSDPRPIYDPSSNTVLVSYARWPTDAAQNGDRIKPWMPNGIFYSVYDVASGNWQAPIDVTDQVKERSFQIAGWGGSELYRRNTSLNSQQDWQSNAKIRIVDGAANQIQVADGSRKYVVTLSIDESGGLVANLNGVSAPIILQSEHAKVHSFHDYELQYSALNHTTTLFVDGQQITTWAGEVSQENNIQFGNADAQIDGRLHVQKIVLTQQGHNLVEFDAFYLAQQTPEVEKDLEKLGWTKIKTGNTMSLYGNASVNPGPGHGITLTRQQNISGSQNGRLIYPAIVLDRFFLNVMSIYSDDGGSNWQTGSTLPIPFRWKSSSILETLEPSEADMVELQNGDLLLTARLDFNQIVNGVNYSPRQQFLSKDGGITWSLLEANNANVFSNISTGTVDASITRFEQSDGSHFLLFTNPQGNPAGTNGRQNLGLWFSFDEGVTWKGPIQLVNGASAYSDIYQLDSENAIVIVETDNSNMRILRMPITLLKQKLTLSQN

[7] = tested on: influenza A virus (A/WSN/33); assay: ELISA virus capture on streptavidin coated plate; type: binding
[8] = tested on: Japanese encephalitis virus (JEV); assay: ELISA selective capturing experiment; type: binding; conditions: mixture of influenza A virus and JEV; anti-JEV antibody
[9] = tested on: influenza A virus; assay: ELISA capturing experiment with neuraminidase active site blocked by zanamivir; type: binding; conditions: compound 1 667 μM, zanamivir 67 μM pre-incubation 45 minutes, 9×10^3 PFU, optical density

Compound | bands on the PVDF membrane (biotinylated neuraminidase isoenzymes) [1] | bands on the PVDF membrane [2] | pIC50 [3] | inhibitory effect on neuraminidase activity ([3]; pH 6.5) | inhibitory effect on neuraminidase activity [4] | inhibitory effect on neuraminidase activity [5] | pIC50 [6] | inhibitory effect on neuraminidase activity [6] | capture of influenza A virus on plate wells ([7]; 5 nmol on streptavidin coated plate, virus 3.8×10^2-970×10^2 PFU, anti-Flu A antibody detection) | capture of influenza A virus from a mixture with JEV ([7]; mixture of influenza A virus and JEV, anti-Flu A antibody) | capture of JEV from a mixture with influenza A virus [8] | capture of influenza A virus relative to influenza A virus pretreated with zanamivir [9]
CC(=O)N[C@@H]1C(O)CC(Oc2ccc(NC(=O)CCC(=O)NCCCCCCNC(=O)CCCCC3SCC4NC(=O)NC43)cc2C(F)F)(C(=O)O)OC1[C@H](O)[C@H](O)CO (stereo partly drawn) [compound 1] | three bands | no band was observed | 2.77 | significant inhibitory effect | significant inhibitory effect | significant inhibitory effect | 3.28 | significant inhibitory effect | successfully captured influenza A virus | captured and detected | not JEV | 14 folds
CC(=O)N[C@H]1[C@H]([C@H](O)[C@H](O)CO)OC(C(=O)O)=C[C@@H]1N=C(N)N [zanamivir, reference compound] |  |  |  |  | only weak inhibitory effect | only weak inhibitory effect |  | only weak inhibitory effect |  |  |  | 
